The values below come from patent US20260167656A1, “PHOSPHORAMIDATE COMPOUNDS AND USES THEREOF” (ALLORION THERAPEUTICS INC, priority 2022, published 2026).

Assay [1] relates to non-small cell lung cancer cell line H460. The assay is described as follows: H460 proliferation assay in the presence of 3 uM ASP9521 (AKR1C3 specific inhibitor). Format: cell-based, human. The following applies: H460 cells, CellTiter-Glo, 72 hours, in the presence of 3 uM ASP9521 added 4 hours prior to compounds; read-out: CTG H460: Avg IC50 (nM) [Assay Condition: ASP9521]. The method in brief: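 AKR1C3 blocked with 3 uM ASP9521 given 4 h ahead of test compounds. H460 cells, plated 24 h earlier, were then treated for 72 h at 37 °C in 5% CO2. CellTiter-Glo luminescence gave viability.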

For assay [2] the test system is unchanged. Description: In vitro human cancer cell line cytotoxicity (proliferation) assay in H460, CellTiter-Glo, 72 hours. In kind it is cell-based. The following applies: H460 cells, DMSO condition (no AKR1C3 inhibitor), read-out: CTG H460: Avg IC50 (nM) [Assay Condition: DMSO]. The gist of the method:
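IC50s in nM come from CellTiter-Glo viability read after 72 h of compound exposure. Compounds went in from 10 mM DMSO stocks onto H460 cells, which had been plated at 3×10^3 per well and grown 24 h beforehand at 37 °C, 5% CO2.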

Each structure is given as a SMILES string.

Take `Cn1ccc2cc(Oc3c([N+](=O)[O-])ccc4c3CC[C@@H]4OP(=O)(N3CC3)N3CC3)ccc2c1=O` [Example 382]: the IC50 is 320 nM in assay [1] and under 10 nM in assay [2] (Homo sapiens, NCI-H460, 72 h).

For the compound `C[C@@H](OP(=O)(N1CC1)N1CC1)c1cc2cc(Oc3cccc(C(=O)N(C)C)c3)c([N+](=O)[O-])cc2o1` [Example 566], the IC50 in assay [1] was 6380 nM; in assay [2], 10 to 50 nM.

Regarding `Cc1nc2cc(Oc3c([N+](=O)[O-])ccc4c3CCC4OP(=O)(N3CC3)N3CC3)ccc2n1C` (stereo not shown) [Example 388], the IC50 in assay [1] was 1430 nM; in assay [2] (Homo sapiens, NCI-H460, 72 h), under 10 nM.

As for `O=[N+]([O-])c1ccc2c(c1Oc1cccc(OCC3CC3)c1)CC[C@@H]2OP(=O)(N1CC1)N1CC1` [Example 481], the IC50 is 1120 nM in assay [1] and under 10 nM in assay [2] (Homo sapiens, NCI-H460, 72 h).

Turning to `O=[N+]([O-])c1ccc2c(c1Oc1cccc(C3CC3)c1)CCC2OP(=O)(N1CC1)N1CC1` (stereo not shown) [Example 316], the figures for the IC50 in assay [1] and in assay [2] were 781 nM and under 10 nM, respectively.

As for `O=[N+]([O-])c1ccc2c(c1Oc1cccc(-c3cnn(C4CC4)c3)c1)CCC2OP(=O)(N1CC1)N1CC1` (stereo not shown) [Example 96], the half-maximal inhibitory concentration (IC50) is 5270 nM in assay [1] and 10 to 50 nM in assay [2].

Regarding `O=[N+]([O-])c1ccc2c(c1Oc1ccc(F)c(C3CC3)c1)CCC2OP(=O)(N1CC1)N1CC1` (stereo not shown) [Example 335], the half-inhibitory concentration (IC50) in assay [1] is 1910 nM; in assay [2], under 10 nM.

With `O=[N+]([O-])c1ccc2c(c1Oc1ccc(-c3ncc(F)cn3)c(F)c1)CC[C@@H]2OP(=O)(N1CC1)N1CC1` [Example 268, (S)-4-(3-fluoro-4-(5-fluoropyrimidin-2-yl)phenoxy)-5-nitro-2,3-dihydro-1H-inden-1-yl di(aziridin-1-yl)phosphinate], the IC50 in assay [1] is 1110 nM; in assay [2] (Homo sapiens, NCI-H460, 72 h) it was under 10 nM.

As for `CSc1cccc(Oc2c([N+](=O)[O-])ccc3c2CC[C@H]3OP(=O)(N2CC2)N2CC2)c1` [Example 472], the IC50 in assay [1] was 583 nM; in assay [2], under 10 nM.

Take `CSc1cc(Oc2c([N+](=O)[O-])ccc3c2CCC3OP(=O)(N2CC2)N2CC2)ccc1F` (stereo not shown) [Example 507]: the concentration for half-maximal inhibition (IC50) in assay [1] is 952 nM; in assay [2] it was under 10 nM.

Consider `O=C(c1cccc(Oc2c([N+](=O)[O-])ccc3c2CCC3OP(=O)(N2CC2)N2CC2)c1)N1CCC1` (stereo not shown) [Example 98], for which the figures for the IC50 in assay [1] and in assay [2] were 205 nM and under 10 nM, respectively.

In the case of `Cc1ccn(-c2cc(Oc3c([N+](=O)[O-])ccc4c3CC[C@@H]4OP(=O)(N3CC3)N3CC3)ccc2F)n1` [Example 439], the IC50 is 2090 nM in assay [1] and under 10 nM in assay [2] (Homo sapiens, NCI-H460, 72 h).

`CCOc1cc(Oc2c([N+](=O)[O-])ccc3c2CC[C@@H]3OP(=O)(N2CC2)N2CC2)ccc1F` [Example 493]: the half-maximal inhibitory concentration (IC50) was 341 nM in assay [1] and under 10 nM in assay [2] (Homo sapiens, NCI-H460, 72 h).

As to `CC(OP(=O)(N1CC1)N1CC1)c1cc(Oc2ccc(C(=O)N(C)C)cc2)c([N+](=O)[O-])cc1Cl` (stereo not shown) [Example 9], the 50% inhibitory concentration (IC50) was 1720 nM in assay [1] and under 10 nM in assay [2] (Homo sapiens, NCI-H460, 72 h).

Take `Cn1c(=O)n(C)c2cc(Oc3c([N+](=O)[O-])ccc4c3CCC4OP(=O)(N3CC3)N3CC3)ccc21` (stereo not shown) [Example 93]: the IC50 in assay [1] is 878 nM; in assay [2], at least 100 nM.

With `O=C(c1cccc(Oc2c([N+](=O)[O-])ccc3c2CCC3OP(=O)(N2CC2)N2CC2)c1)N1CC(F)(F)C1` (stereo not shown) [Example 66], the IC50 in assay [1] was 736 nM; in assay [2] (Homo sapiens, NCI-H460, 72 h), under 10 nM.

With `CN1Cc2ccc(Oc3cc4c(cc3[N+](=O)[O-])OCCC4OP(=O)(N3CC3)N3CC3)cc2C1=O` (stereo not shown) [Example 199, 6-((2-methyl-3-oxoisoindolin-5-yl)oxy)-7-nitrochroman-4-yl di(aziridin-1-yl)phosphinate], the IC50 in assay [1] was 416 nM; in assay [2] (Homo sapiens, NCI-H460, 72 h) it was under 10 nM.

For the compound `C[C@@H](OP(=O)(N1CC1)N1CC1)c1cc2cc(Oc3ccc4c(c3)OC(F)(F)O4)c([N+](=O)[O-])cc2o1` [Example 550], the IC50 is 2510 nM in assay [1] and under 10 nM in assay [2] (Homo sapiens, NCI-H460, 72 h).

As for `O=[N+]([O-])c1ccc2c(c1Oc1cccc(-c3ccccn3)c1)CC[C@@H]2OP(=O)(N1CC1)N1CC1` [Example 297], the 50% inhibitory concentration (IC50) in assay [1] was 1300 nM; in assay [2] (Homo sapiens, NCI-H460, 72 h), under 10 nM.

`O=[N+]([O-])c1cc2c(cc1Oc1ccc(-c3ccccn3)cc1)C(OP(=O)(N1CC1)N1CC1)CC2` (stereo not shown) [Example 523]: the IC50 is 2070 nM in assay [1] and under 10 nM in assay [2].

With `COc1ccc(-c2ccc(Oc3cc4c(cc3[N+](=O)[O-])CCC4OP(=O)(N3CC3)N3CC3)cc2)cc1` (stereo not shown) [Example 184], the half-inhibitory concentration (IC50) was 2640 nM in assay [1] and 10 to 50 nM in assay [2] (Homo sapiens, NCI-H460, 72 h).

In the case of `O=[N+]([O-])c1ccc2c(c1Oc1ccc(F)c(OC3CCCC3)c1)CCC2OP(=O)(N1CC1)N1CC1` (stereo not shown) [Example 478], the IC50 in assay [1] is 1690 nM; in assay [2], under 10 nM.

In the case of `O=[N+]([O-])c1cc2c(cc1Oc1ccc(-c3ccccn3)cc1)C(OP(=O)(N1CC1)N1CC1)CC2` (stereo not shown) [Example 524], the values for the half-inhibitory concentration (IC50) in assay [1] and in assay [2] were 1190 nM and under 10 nM, respectively.

`COc1ccnc(OCc2cc(C(C)OP(=O)(N3CC3)N3CC3)ccc2[N+](=O)[O-])c1` (single isomer, unassigned) [Example 3]: the IC50 was over 3410 nM in assay [1] and at least 100 nM in assay [2] (Homo sapiens, NCI-H460, 72 h).

For the compound `CC(OP(=O)(N1C[C@H]1C)N1C[C@H]1C)c1ccc([N+](=O)[O-])c(Oc2ccc(-c3ccccc3)cc2)c1` (stereo partly shown) [Example 218], the IC50 in assay [1] is 1370 nM; in assay [2] (Homo sapiens, NCI-H460, 72 h), under 10 nM.

With `O=[N+]([O-])c1ccc2c(c1Oc1cccc(-c3ccc(F)cc3)c1)CC[C@@H]2OP(=O)(N1CC1)N1CC1` [Example 298], the IC50 was 1690 nM in assay [1] and under 10 nM in assay [2] (Homo sapiens, NCI-H460, 72 h).

With `O=[N+]([O-])c1ccc2c(c1Oc1ccc(-c3ccccc3)cc1)OCCC2OP(=O)(N1CC1)N1CC1` (stereo not shown) [Example 135], the values for the IC50 in assay [1] and in assay [2] were 482 nM and under 10 nM, respectively.

On to `O=C1CCCCN1c1cccc(Oc2c([N+](=O)[O-])ccc3c2CCC3OP(=O)(N2CC2)N2CC2)c1` (stereo not shown) [Example 108], for which the values for the IC50 in assay [1] and in assay [2] were 1710 nM and under 10 nM, respectively.

Consider `O=[N+]([O-])c1ccc2c(c1Oc1cccc(-n3cccn3)c1)CCC2OP(=O)(N1CC1)N1CC1` (stereo not shown) [Example 113], for which the IC50 in assay [1] was 650 nM; in assay [2] (Homo sapiens, NCI-H460, 72 h), under 10 nM.

Regarding `CC(OP(=O)(N1C[C@H]1C)N1C[C@H]1C)c1ccc([N+](=O)[O-])c(Oc2cccc(C(=O)N(C)C)c2)c1` (stereo partly shown) [Example 212], the IC50 was 958 nM in assay [1] and under 10 nM in assay [2].

As to `Cn1c(=O)oc2ccc(Oc3c([N+](=O)[O-])ccc4c3CCC4OP(=O)(N3CC3)N3CC3)cc21` (single isomer, unassigned) [Example 64], the IC50 is 722 nM in assay [1] and under 10 nM in assay [2] (Homo sapiens, NCI-H460, 72 h).

As to `O=[N+]([O-])c1ccc2c(c1Oc1cccc(-c3noc(C4CC4)n3)c1)CCC2OP(=O)(N1CC1)N1CC1` (stereo not shown) [Example 91], the IC50 in assay [1] is over 10000 nM; in assay [2] it was at least 100 nM.

On to `O=c1ccccn1-c1cccc(Oc2c([N+](=O)[O-])ccc3c2CCC3OP(=O)(N2CC2)N2CC2)c1` (stereo not shown) [Example 80], for which the concentration for half-maximal inhibition (IC50) in assay [1] was 909 nM; in assay [2] (Homo sapiens, NCI-H460, 72 h) it was under 10 nM.

With `O=C1CCCN1c1cc(Oc2c([N+](=O)[O-])ccc3c2CC[C@H]3OP(=O)(N2CC2)N2CC2)ccc1F` [Example 428], the concentration for half-maximal inhibition (IC50) is 1200 nM in assay [1] and under 10 nM in assay [2].

As to `O=[N+]([O-])c1ccc2c(c1Oc1ccc(-n3cccn3)cc1)CCC2OP(=O)(N1CC1)N1CC1` (stereo not shown) [Example 424], the IC50 in assay [1] is 779 nM; in assay [2], under 10 nM.
